# Test results as given in ChEMBL document CHEMBL3739395, “Discovery and optimisation of 1-acyl-2-benzylpyrrolidines as potent dual orexin receptor antagonists” (Medchemcomm, 2015).
# Active and inactive are the calls of the source. The rule behind the calls is not given here.
# Assays:
# Orexin receptor type 2 = biological target: T1, Orexin receptor type 2 (Homo sapiens, UniProt O43614); assay: Inhibition of human orexin-2 receptor expressed in CHO cells assessed as calcium release preincubated for 120 mins followed by addition of orexin-A by fluo-4 AM based-FLIPR analysis; format: functional, cell-based
# T1 sequence (O43614 whole entry): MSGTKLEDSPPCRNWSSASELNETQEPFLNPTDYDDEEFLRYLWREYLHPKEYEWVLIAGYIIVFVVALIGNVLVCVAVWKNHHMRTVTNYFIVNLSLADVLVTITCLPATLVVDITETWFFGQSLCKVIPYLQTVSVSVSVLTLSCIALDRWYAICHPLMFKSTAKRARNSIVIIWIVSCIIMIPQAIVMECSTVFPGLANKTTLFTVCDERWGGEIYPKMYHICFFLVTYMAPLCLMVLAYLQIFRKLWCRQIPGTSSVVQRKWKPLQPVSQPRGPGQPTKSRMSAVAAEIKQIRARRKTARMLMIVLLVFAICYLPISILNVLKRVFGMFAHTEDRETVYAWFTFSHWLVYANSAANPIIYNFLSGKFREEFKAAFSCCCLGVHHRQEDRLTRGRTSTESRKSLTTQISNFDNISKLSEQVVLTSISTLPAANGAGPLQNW
# [1] = Intrinsic clearance in human liver microsomes at 1 uM; format: ADME; settings: read-out: CLH
# [2] = biological target: T2, Orexin/Hypocretin receptor type 1 (Homo sapiens, UniProt O43613); assay: Inhibition of human orexin-1 receptor expressed in CHO cells assessed as calcium release preincubated for 120 mins followed by addition of orexin-A by fluo-4 AM based-FLIPR analysis; format: functional, cell-based
# T2 sequence (O43613 whole entry): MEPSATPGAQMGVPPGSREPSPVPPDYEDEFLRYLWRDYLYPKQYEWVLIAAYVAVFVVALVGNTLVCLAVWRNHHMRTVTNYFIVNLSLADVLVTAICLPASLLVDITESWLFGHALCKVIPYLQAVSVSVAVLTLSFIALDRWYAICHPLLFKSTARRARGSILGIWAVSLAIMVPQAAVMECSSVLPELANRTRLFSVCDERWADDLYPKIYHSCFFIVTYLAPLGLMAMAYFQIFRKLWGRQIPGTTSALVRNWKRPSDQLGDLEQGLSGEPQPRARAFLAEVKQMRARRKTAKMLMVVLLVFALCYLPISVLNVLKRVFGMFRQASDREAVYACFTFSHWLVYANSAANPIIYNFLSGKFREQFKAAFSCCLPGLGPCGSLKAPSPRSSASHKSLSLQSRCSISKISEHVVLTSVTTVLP
# Rattus norvegicus [3] = assay: Reduction in home cage activity in Wistar rat sleep model at 100 mg/kg, po administered as single dose during first 6 hrs of night active period post dose relative to vehicle control; format: functional; set-up: scale not given: the % may be the effect or the level left
# Rattus norvegicus [4] = assay: Sleep promoting effect in Wistar rat sleep model at 100 mg/kg, po administered as single dose during first 6 hrs of night active period post dose relative to vehicle control; format: functional, organism-based
# Rattus norvegicus [5] = assay: Reduction in time spent in active wake state in Wistar rat sleep model at 100 mg/kg, po administered as single dose during first 6 hrs of night active period post dose relative to vehicle control; format: functional; set-up: scale not given: the % may be the effect or the level left
# Rattus norvegicus [6] = assay: Increase in time spent in quiet wake state in Wistar rat sleep model at 100 mg/kg, po administered as single dose during first 6 hrs of night active period post dose relative to vehicle control; format: functional
# Rattus norvegicus [7] = assay: Increase in time spent in non-rapid eye movement sleep in Wistar rat sleep model at 100 mg/kg, po administered as single dose during first 6 hrs of night active period post dose relative to vehicle control; format: functional
# Rattus norvegicus [8] = assay: Increase in time spent in rapid eye movement sleep in Wistar rat sleep model at 100 mg/kg, po administered as single dose during first 6 hrs of night active period post dose relative to vehicle control; format: functional
# [9] = Drug uptake in Wistar rat brain at 100 mg/kg, po measured 3 hrs post dose; format: ADME, organism-based; settings: read-out: Drug uptake
# [10] = Drug uptake in Wistar rat cerebrospinal fluid at 100 mg/kg, po measured 3 hrs post dose; format: ADME, organism-based; settings: read-out: Drug uptake
# [11] = Ratio of drug level in brain to plasma in Wistar rat at 100 mg/kg, po measured 3 hrs post dose; format: ADME, organism-based; settings: brain and plasma, read-out: BPR
# [12] = Plasma concentration in Wistar rat at 100 mg/kg, po measured 3 hrs post dose; format: ADME, organism-based
# [13] = Intrinsic clearance in rat liver microsomes at 1 uM; format: ADME; settings: read-out: CLH
compound,measurement,setting,value
COc1ccc(CCC2CCCCN2C(=O)c2cc(C)ccc2-n2nccn2)cc1OC (racemic),IC50,Orexin receptor type 2,16 nM
same,microsomal CLint at 1 µM,[1],817 µL/min/mg
same,IC50,[2],28 nM
CNC(=O)[C@@H](c1ccccc1)N1CCc2cc(OC)c(OC)cc2[C@@H]1CCc1ccc(C(F)(F)F)cc1 [ALMOREXANT],Activity,Rattus norvegicus [3],-42%
same,Activity,Rattus norvegicus [4],Active
same,Activity,Rattus norvegicus [5],-20%
same,Activity,Rattus norvegicus [6],-8%
same,Activity,Rattus norvegicus [7],22%
same,Activity,Rattus norvegicus [8],50%
COc1ccc(C[C@@H]2CCCN2C(=O)c2nccnc2-c2cccc(C)c2)cc1OC,concentration at 3 h,[9],89 ng/mL
same,concentration at 3 h,[10],22 ng/mL
same,Kp at 3 h,[11],0.4
same,IC50,Orexin receptor type 2,4 nM
same,microsomal CLint at 1 µM,[1],158 µL/min/mg
same,IC50,[2],23 nM
same,concentration at 3 h,[12],225 ng/mL
COc1ccc(C[C@@H]2CCCN2C(=O)c2ccccc2-n2nccn2)cc1OC,concentration at 3 h,[9],45 ng/mL
same,concentration at 3 h,[10],12 ng/mL
same,Kp at 3 h,[11],0.39
same,IC50,Orexin receptor type 2,3.5 nM
same,microsomal CLint at 1 µM,[1],104 µL/min/mg
same,microsomal CLint at 1 µM,[13],> 1250 µL/min/mg
same,IC50,[2],16 nM
same,concentration at 3 h,[12],114 ng/mL
COc1cccc(CCC2CCCCN2C(=O)c2cc(C)ccc2-n2nccn2)c1 (racemic),IC50,Orexin receptor type 2,243 nM
same,microsomal CLint at 1 µM,[1],1170 µL/min/mg
same,IC50,[2],108 nM
Cc1cccc(-c2sc(C)nc2C(=O)N2CCC[C@H]2Cc2ccc(C)c(Cl)c2)c1,IC50,Orexin receptor type 2,10 nM
same,microsomal CLint at 1 µM,[1],> 1250 µL/min/mg
same,microsomal CLint at 1 µM,[13],> 1250 µL/min/mg
same,IC50,[2],13 nM
COc1ccc(C[C@@H]2CCCN2C(=O)c2nc(C)ccc2-c2ncccn2)cc1OC,IC50,Orexin receptor type 2,71 nM
same,microsomal CLint at 1 µM,[1],17 µL/min/mg
same,IC50,[2],60 nM
Cc1cccc(-c2sc(C)nc2C(=O)N2CCC[C@H]2Cc2ccc3c(c2)OCO3)c1,IC50,Orexin receptor type 2,40 nM
same,microsomal CLint at 1 µM,[1],124 µL/min/mg
same,IC50,[2],64 nM
CCn1cc(C(=O)N2CCCCC2Cc2ccc(OC)c(OC)c2)c2ccccc21 (racemic),IC50,Orexin receptor type 2,102 nM
same,IC50,[2],28 nM
Cc1ccc(-n2nccn2)c(C(=O)N2CCN(c3nc4cc(Cl)ccc4o3)CC[C@H]2C)c1 [SUVOREXANT],Activity,Rattus norvegicus [3],-31%
same,Activity,Rattus norvegicus [4],Active
same,Activity,Rattus norvegicus [5],-16%
same,Activity,Rattus norvegicus [6],9%
same,Activity,Rattus norvegicus [7],19%
same,Activity,Rattus norvegicus [8],20%
COc1ccc(CC2CCCCN2C(=O)c2cc(C)ccc2-n2nccn2)cc1OC (racemic),IC50,Orexin receptor type 2,3.3 nM
same,microsomal CLint at 1 µM,[1],616 µL/min/mg
same,IC50,[2],2.7 nM
COc1ccc(C[C@@H]2CCCN2C(=O)c2nc(C)sc2-c2ccc3c(c2)CCO3)cc1OC,IC50,Orexin receptor type 2,8 nM
same,microsomal CLint at 1 µM,[1],235 µL/min/mg
same,IC50,[2],8.3 nM
COc1ccc(C[C@@H]2CCCN2C(=O)c2nc(C)sc2-c2cccc(C)c2)cc1Cl,IC50,Orexin receptor type 2,1.8 nM
same,microsomal CLint at 1 µM,[1],> 1250 µL/min/mg
same,microsomal CLint at 1 µM,[13],> 1250 µL/min/mg
same,IC50,[2],3.8 nM
COc1cccc(C[C@@H]2CCCN2C(=O)c2nc(C)sc2-c2cccc(C)c2)c1Cl,IC50,Orexin receptor type 2,16 nM
same,microsomal CLint at 1 µM,[1],> 1250 µL/min/mg
same,microsomal CLint at 1 µM,[13],> 1250 µL/min/mg
same,IC50,[2],26 nM
